Experimental findings from EP0545912B1, “1-Biphenylmethylimidazole derivatives, their preparation and their therapeutic use” (Sankyo Company Limited, priority 1991, dated 1992) are described below.

The subject of this assay is All receptor (pressor response to angiotensin II). The assay is described as follows: Evaluation of AII receptor blocking activity by inhibition of pressor response to angiotensin II. The assay is classed as in vivo. To be noted: dose inhibiting pressor response to intravenous angiotensin II (50 ng/kg) by fifty percent; anesthetized male Wister-Imamichi rats; test compound i.v., angiotensin II injected two minutes later; 2 min. Here is the method: Evaluation of All receptor blocking activity by Inhibition of pressor response to angiotensin II
The biological activity of each compound was assessed by determining the dose required to inhibit the pressor response to intravenous angiotensin II by fifty percent (ID50) in rats. Male Wister-Imamichi rats, each weighing 300 to 400 g, were anesthesized by intraperitoneal injection of 100 mg/Kg of sodium thiobutabarbital [Inactin (trade name)] and two cannulae were inserted: one into the femoral artery for measuring blood pressure and the other into the femoral vein for injecting drugs. Fifty ng/kg of angiotension II were intravenously administered at intervals of about 10 minutes, and the elevation of blood pressure (normally about 50 mmHg) was observed. After constant pressor responses to angiotensin II were obtained, a test compound was intravenously administered. Two minutes later, angiotension II was again injected, and the inhibitory effect of the test compound was estimated. The percent inhibitions of the pressor response to angiotensin II by progressive increase of the test compound was used to calculate the value of ID50. Angiotensin II was used in this test dissolved in 0.5 % bovine serum albumin (BSA) and the test compounds were dissolved in 100% dimethyl sulphoxide (DMSO).
In addition to the compounds of the invention (which are identified hereafter by the number of the one of the following Examples which illustrates their preparation), we also carried out the same experiment using a prior art compound (identified in the Table as "compound A"), which is 2-[4-(2-butyl-5-chloro-4-chloromethylimidazoll-ylmethyl)phenyl]benzoic acid, which is disclosed in Example 118 of European Patent Publication No. 253 310.
As to `CCCCc1nc(CO)c(C(=O)O)n1Cc1ccc(-c2ccccc2C(=O)O)cc1` [Example 5, 2-Butyl-1-[(2'-carboxybiphenyl-4-yl)methyl]-4-hydroxymethylimidazole-5-carboxylic acid], the ID50 is listed as 0.22 mg/kg, i.v.
As for `CCCCc1nc(C(C)O)c(C(=O)O)n1Cc1ccc(-c2ccccc2C(=O)O)cc1` (stereo not shown) [Example 11, 2-Butyl-1-[(2'-carboxybiphenyl-4-yl)methyl]-4-(1-hydroxyethyl) imidazole-5-carboxylic acid], the figure is 0.25 mg/kg, i.v; as for `CCCc1nc(CO)c(C(=O)O)n1Cc1ccc(-c2ccccc2-c2nnn[nH]2)cc1` [Example 36, 4-Hydroxymethyl-2-propyl-1-{4-[2-(tetrazol-5-yl)phenyl]phenyl}methylimidazole-5-carboxylic acid], 0.0062 mg/kg, i.v.
Take `CCCCc1nc(CO)c(C(=O)O)n1Cc1ccc(-c2ccccc2-c2nnn[nH]2)cc1` [Example 39, 2-Butyl-4-hydroxymethyl-1-{4-[2-(tetrazol-5-yl)-phenyl]phenyl}methylimidazole-5-carboxylic acid]: the ID50 is given as 0.010 mg/kg, i.v.
Take `CCCc1nc(C(C)O)c(C(=O)O)n1Cc1ccc(-c2ccccc2-c2nnn[nH]2)cc1` (stereo not shown) [Example 41, 4-(1-Hydroxyethyl)-2-propyl-1-{4-[2-(tetrazol-5-yl)phenyl]phenyl}methylimidazole-5-carboxylic acid]: the ID50 is listed as 0.0063 mg/kg, i.v.
As for `CCCCc1nc(C(C)O)c(C(=O)O)n1Cc1ccc(-c2ccccc2-c2nnn[nH]2)cc1` (stereo not shown) [Example 44, 2-Butyl-4-(1-hydroxyethyl)-1-{4-[2-(tetrazol-5-yl)phenyl]phenyl}methylimidazole-5-carboxylic acid], the figure is 0.0082 mg/kg, i.v; as for `CCCCc1nc(C(C)O)c(C(N)=O)n1Cc1ccc(-c2ccccc2C(=O)O)cc1` (stereo not shown) [Example 45, 2-Butyl-1-[(2'-carboxybiphenyl-4-yl)methyl]-4-(1-hydroxyethyl) imidazol-5-carboxamide], 0.19 mg/kg, i.v.
The result for `CCCCc1nc(C(O)CC)c(C(N)=O)n1Cc1ccc(-c2ccccc2C(=O)O)cc1` (stereo not shown) [Example 46, 2 -Butyl-1-[(2'-carboxybiphenyl-4-yl)methyl]-4-(1-hydroxypropyl)imidazole-5-carboxamide] reads 0.18 mg/kg, i.v.
As for `CCCCc1nc(C(O)C(C)C)c(C(N)=O)n1Cc1ccc(-c2ccccc2C(=O)O)cc1` (stereo not shown) [Example 48, 2-Butyl-1-[(2'-carboxybiphenyl-4-yl)methyl]-4-(1-hydroxy-2-methylpropyl)imidazole-5-carboxamide], the figure is 0.064 mg/kg, i.v; as for `CCCCc1nc(CO)c(C(=O)NCC(=O)O)n1Cc1ccc(-c2ccccc2C(=O)O)cc1` [Example 55, N-Carboxymethyl-2-butyl-1-[(2'-carboxybiphenyl-4-yl)-methyl]-4-hydroxymethylimidazole-5-carboxamide], 0.23 mg/kg, i.v.
`CCCCc1nc(C(O)C(C)(C)C)c(C(N)=O)n1Cc1ccc(-c2ccccc2C(=O)O)cc1` (stereo not shown) [Example 59, 2-Butyl-1-[(2'-carboxybiphenyl-4-yl)methyl]-4-(1-hydroxy-2,2-dimethylpropyl)imidazole-5-carboxamide]: the ID50 is 0.066 mg/kg, i.v.
The result for `CCCc1nc(C(O)C(C)(C)C)c(C(N)=O)n1Cc1ccc(-c2ccccc2C(=O)O)cc1` (stereo not shown) [Example 60, 1-[(2'-Carboxybiphenyl-4-yl)methyl]-4-(1-hydroxy-2,2-dimethylpropyl)-2-propylimidazole-5-carboxamide] reads 0.134 mg/kg, i.v; that for `CCCc1nc(C(O)C(C)(C)C)c(C(N)=O)n1Cc1ccc(-c2ccccc2-c2nnn[nH]2)cc1` (stereo not shown) [Example 74, 4-(1-Hydroxy-2,2-dimethylpropyl)-2-propyl-1-{4-[2-(tetrazol-5-yl)phenyl]phenyl}methylimidazole-5-carboxamide], 0.036 mg/kg, i.v.
As for `CCCCc1nc(C(O)C(C)(C)C)c(C(N)=O)n1Cc1ccc(-c2ccccc2-c2nnn[nH]2)cc1` (stereo not shown) [Example 75, 2-Butyl-4-(1-hydroxy-2,2-dimethylpropyl)-1-{4-[2-(tetrazol-5-yl)phenyl]phenyl}methylimidazole-5-carboxamide], the figure is 0.11 mg/kg, i.v; as for `CCCc1nc(C(O)C(C)C)c(C(N)=O)n1Cc1ccc(-c2ccccc2-c2nnn[nH]2)cc1` (stereo not shown) [Example 76, 4-(1-Hydroxy-2-methylpropyl)-2-propyl-1-{4-[2-(tetrazol-5-yl)phenyl]phenyl}methylimidazole-5-carboxamide], 0.022 mg/kg, i.v; as for `CCCCc1nc(CCl)c(Cl)n1Cc1ccc(-c2ccccc2C(=O)O)cc1` [compound A, 2-[4-(2-butyl-5-chloro-4-chloromethylimidazoll-ylmethyl)phenyl]benzoic acid, reference compound], 3.3 mg/kg, i.v.
